This is an account of results in patent publication US20120142627A1, “MONOPHOSPHATE PRODRUGS OF DAPD AND ANALOGS THEREOF” (Emory University, priority 2010, published 2012).

Like-named read-outs stand apart in the source and are kept apart here.

Data set [1] concerns PBM cells. The experiment in a line: Intracellular metabolites (DXG-TP, DAPD-TP) in PBM cells. It counts as in vitro ADME, human. To be noted: for DXG-TP levels: PBM cells incubated for 4 h at 50 µM, mean and S.D.; for intracellular DXG-TP detected (in words) / intracellular phosphorylated DAPD / DAPD-TP detected (in words): PBM cells, 50 μM, 4 h, 37° C. How it is done: Reexamination of the intracellular metabolism of DAPD, which contains a 6-amino group, at 50 μM for 4 h in PBM cells at 37° C. resulted the detection of high levels of DXG-TP in addition to DXG and DXG-MP.
PBM cells were incubated with the corresponding compounds for 4 h […]. The data plotted represent the mean value and S.D. of experiments with PBM cells.

Data set [2] relates to HIV-1LAI. The experiment in a line: Anti-HIV (in PBM cells) assay. It counts as cell-based. Particulars: Human immunodeficiency virus 1, PBMC; for EC50: read-out: HIV EC50; for EC90: read-out: HIV EC90. How it is done:
Stock solutions (20-40 mM) of the compounds were prepared in sterile DMSO and then diluted to the desired concentration in growth medium. Cells were infected with the prototype HIV-1LAI at a multiplicity of infection of 0.01. Virus obtained from the cell supernatant was quantified on day 6 after infection by a reverse transcriptase assay using (rA)n.(dT)12-18 as template-primer. The DMSO present in the diluted solution (<0.1%) had no effect on the virus yield. AZT was included as positive control.

The subject of data set [3] is human PBM cells. Nature of the data set: Cytotoxicity in human PBM cells. It counts as cell-based. How it is done: v) Cellular Toxicity Assays: 6-Substituted-2-amino purine dioxolane monophosphate prodrugs were evaluated for their potential toxic effects on P4/R5 cells, MT-2 cells and uninfected PHA-stimulated human PBM cell. Log-phase P4/R5, MT-2, and PHA-stimulated human PBM cells were seeded at 5×10^3 to 5×10^4 cells/well in 96-well cell culture plates containing 10-fold serial dilutions of the test drug. The cultures were incubated for 2-4 days, after which 3-(4,5-dimethylthiazol-2-yl)-2,5-diphenyltetrazolium bromide (MIT) dye solution (Promega, Madison, Wis.) were added to each well and incubated overnight. The reaction was stopped with stop solubilization solution (Promega, Madison, Wis.) and plates were read at a wavelength of 570 nm.

Data set [4] concerns PHA-stimulated human PBMCs and CEM cells. To be noted: cited from earlier work.
Data set [5] has as its system CEM (human lymphoblastoid) cells. Nature of the data set: Cytotoxicity in CEM cells. To be noted: Lymphoblastoid cell, read-out: CEM IC50.
Source text: (§1) The toxicity of the compounds can be assessed in Vero, human PBM, CEM (human lymphoblastoid), MT-2, and HepG2 cells, as described previously (see Schinazi R. F., Sommadossi J.-P., Saalmann V., Cannon D. L., Xie M.-Y., Hart G. C., Smith G. A. & Hahn E. F. Antimicrob. Agents Chemother. 1990, 34, 1061-67). Cycloheximide can be included as positive cytotoxic control, and untreated cells exposed to solvent can be included as negative controls. The cytotoxicity IC50 can be obtained from the concentration-response curve using the median effective method described previously (see Chou T.-C. & Talalay P. Adv. Enzyme Regul. 1984, 22, 27-55; Belen'kii M. S. & Schinazi R. F. Antiviral Res. 1994, 25, 1-11).
Data set [6] deals with Vero cells. Nature of the data set: Cytotoxicity in Vero cells. To be noted: Chlorocebus sabaeus, read-out: Vero IC50.
Source text: as §1
For data set [7], the system named is adenosine deaminase. Nature of the data set: Adenosine deaminase assay. Particulars: 7 minutes, 0.002 units of enzyme, 50 μM, pH 7.4, 25° C. It counts as biochemical. How it is done: To determine the propensity for deamination of the 6-substituted-2-amino purine dioxolane monophosphate prodrugs by adenosine deaminase, nucleoside compounds were incubated with the commercially available purified enzyme, and the reaction was followed spectrophotometrically. Reaction conditions were 50 mM potassium phosphate, pH 7.4, with 50 μM nucleoside analog in 0.5 mL at 25° C. Reaction time was 7 minutes with 0.002 units of enzyme and 120 minutes with 0.2 units of enzyme. (The unit definition of adenosine deaminase is one unit will deaminate 1.0 μmol of adenosine to inosine per minute at pH 7.5 at 25° C.) Deoxyadenosine was the positive control which was 59% deaminated under the given conditions in 7 minutes with 0.002 units of enzyme. Deoxyguanosine was the negative control. Optical density was measured at 265 nm or 285 nm. The difference in optical density between the beginning and the end of the experiment was divided by the extinction coefficient then multiplied by the volume of the reaction to determine the number of mols of substrate transformed into product. Mols of product were divided by mols of substrate equivalent to a 100% complete reaction then multiplied by 100 to obtain percent deamination. The limit of detection was 0.001 optical density units.

For the compound `Nc1nc(Cl)c2ncn(C3COC(CO)O3)c2n1` (centres unmarked) [6-Cl-DXG], in data set [1], the DXG-TP levels worked out at 0.10 pmol/10^6 cells.
Take `COc1nc(N)nc2c1ncn2C1COC(CO)O1` (centres unmarked) [6-OMe-DXG]: in data set [1], the DXG-TP levels was 0.55 pmol/10^6 cells.
For the compound `Nc1nc(N)c2ncn([C@H]3CO[C@@H](CO)O3)c2n1` [DAPD], in data set [2] (human PBM cells), the concentration giving a half-maximal response (EC50) (in general, the concentration at which the effect is half-maximal) was found to be 1 µM and the EC90 (commonly the point of the concentration-response curve where the effect stands at 90%) was found to be 6.5 µM. In addition, the IC50 (as a rule, the midpoint of a concentration-inhibition curve) in data set [3] (Homo sapiens, PBMC, cytotoxicity) is greater than 100 µM. Also, in data set [1], the “intracellular DXG-TP detected (in words)” value is “high levels” and the “intracellular phosphorylated DAPD / DAPD-TP detected (in words)” value is recorded as “no phosphorylated forms of DAPD were detected”. In addition, the “DAPD level in PBMCs relative to CEM cells” value in data set [4] is given as 27 fold. For the same compound, the “phosphorylation of DAPD to mono-, di-, or triphosphate forms” value in data set [4] (either cell type) is given as “No phosphorylation”. Besides, the half-inhibitory concentration (IC50) in data set [5] was greater than 100 µM. Moreover, the IC50 in data set [6] is greater than 100 µM.
Turning to `Nc1nc2c(ncn2[C@H]2CO[C@@H](CO)O2)c(=O)[nH]1` [DXG, (−)-β-D-dioxolane guanine], the DXG-TP levels in data set [1] was determined as 1.75 ± 0.07 pmol/10^6 cells.
As for `Nc1ncnc2c1ncn2[C@H]1C[C@H](O)[C@@H](CO)O1` [Deoxyadenosine], the “percent deaminated by adenosine deaminase” value in data set [7] is on record as 59%.
In the case of `CCOC(=O)[C@H](C)NP(=O)(OC[C@@H]1OC[C@H](n2cnc3c(N)nc(N)nc32)O1)Oc1ccccc1` (some centres unmarked) [RS-864], in data set [2], the EC50 stood at 0.24 µM and the EC90 stood at 1.3 µM. Further, the “PBM IC50 (printed as % @ 100 μM)” value in data set [3] (@ 100 μM) came to 66.5%. In data set [1], the “intracellular DXG-TP detected (in words)” value was “low levels” and the “intracellular phosphorylated DAPD / DAPD-TP detected (in words)” value was “very high levels”. Also, the IC50 in data set [5] is greater than 100 µM. Also, the IC50 in data set [6] was greater than 100 µM.
